# Assay results published in US11338026B2, “Identification of immunologically protective neo-epitopes for the treatment of cancers” (THE UNIVERSITY OF CONNECTICUT, priority 2014, dated 2022).
# “Also recorded” adds a separate entry of the source. Read-outs that look alike come from different tables or passages of the source. Peptide text beside a SMILES is read from it.
# What was measured:
# [1] = biological target: T1, H-2 K^d (Mus musculus, UniProt P01902); assay: Binding assays: inhibition of binding of a radiolabeled standard peptide to purified MHC molecules
# T1 sequence (P01902 22-368): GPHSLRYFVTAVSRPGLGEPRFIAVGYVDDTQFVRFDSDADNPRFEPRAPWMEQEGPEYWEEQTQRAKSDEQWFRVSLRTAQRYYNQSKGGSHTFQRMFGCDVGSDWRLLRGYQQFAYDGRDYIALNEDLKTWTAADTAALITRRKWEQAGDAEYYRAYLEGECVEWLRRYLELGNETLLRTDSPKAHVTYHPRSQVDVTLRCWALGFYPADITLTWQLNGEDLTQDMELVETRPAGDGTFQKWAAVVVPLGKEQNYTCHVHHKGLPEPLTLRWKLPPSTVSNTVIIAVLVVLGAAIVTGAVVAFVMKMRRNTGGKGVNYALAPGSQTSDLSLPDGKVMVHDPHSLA
# T1 sequence (P01887 21-119 partner): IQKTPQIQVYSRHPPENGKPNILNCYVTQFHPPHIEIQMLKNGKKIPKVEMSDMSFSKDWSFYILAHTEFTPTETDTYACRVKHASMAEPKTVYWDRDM
# Description: Binding assays. Binding of peptides to H-2 K^d was determined using quantitative assays based on the inhibition of binding of a radiolabeled standard peptide to purified MHC molecules essentially as described previously. […] Under the conditions utilized, where [label]<[MHC] and IC50≥[MHC], the measured IC50 values are reasonable approximations of the dissociation constant values.
# [2] = test system: CD8+ cells; assay: Intracellular IFN-γ assay by FACS (ICS) on lymphocytes of immunized mice; assay type: in vivo, BALB/c mice; conditions: mice immunized with the WT counterpart of the named neo-epitope
# Description: Intracellular IFN-γ assay by FACS and ELISPOT. Lymphocytes were incubated either with or without 1-10 μg/ml peptide. GolgiPlug (BD Biosciences, San Jose, Calif.) was added 1 h later. After incubation of 12 to 16 h, cells were stained for CD44 (clone IM7), CD4 (clone GK1.5) and CD8 (clone 53-6.7) (BD Biosciences, San Jose, Calif.), fixed and permeabilized using the Cytofix/Cytoperm™ kit (BD Biosciences, San Jose, Calif.), and stained for intracellular IFN-γ using Phycoerythrin-conjugated anti-mouse IFN-γ (clone XMG1.2, BD Biosciences, San Jose, Calif.). Cells were stained with 1 μl antibody/million cells in 50 μl staining buffer (PBS with 1% bovine serum albumin) and incubated for 20 min at 4° C. in the dark, or according to the manufacturer's instructions. Cells without peptide stimulation were used as a negative control, and the values for these controls was very close to the values seen with the negative control peptide. Typically, 95,000-129,000 lymphocytes (14,500-17,000 CD8+CD4− cells) were acquired. The background is consistently very low (10% of the signal).
# (§1) All 18 peptides were used to immunize BALB/c mice. The draining lymph nodes (dLNs) of immunized mice were harvested one week after the single immunization, and the cells were stimulated in vitro for 16 h without any added peptide, the mutant peptide used for immunization, or the corresponding wild type peptide. The CD8+ cells were analyzed for activation (CD44+) and effector function (intracellular IFNγ+). (see Materials and Methods regarding the details of FACS analysis.) All possible patterns of immune-reactivity were observed (FIG. 3A): no immune response (12/18), a mutant peptide-specific, i.e. tumor-specific immune response (5/18), and a cross-reactive response between the mutant and corresponding wild type peptides (1/18).
# [3] = test system: CD8+ cells; assay: IFNγ ELISPOT on CD8+ cells of immunized mice; assay type: in vivo, BALB/c mice; conditions: for ELISpot: mice immunized with mutant peptide; for CD8 T cell response of immunized mice: ELISPOT
# Description: For the ELISPOT assays, the negative controls were CD8+ cells from immunized mice without peptide stimulation. […] The magnitude of responses was rated by mean spot numbers per million CD8+ cells: 5-10 (+); 11-20 (++); 21-50 (+++); 51-100(++++) and >100(+++++).
# as §1
# [4] = mutant peptide, read-out: Measured IC50 for K^d (Mut/WT): Mut
# [5] = WT counterpart peptide, read-out: Measured IC50 for K^d (Mut/WT): WT
SMILES,IC50 [1],ELISpot [3],other results
"CC(C)C[C@H](NC(=O)[C@H](CC(=O)O)NC(=O)[C@H](CC(C)C)NC(=O)[C@H](Cc1ccc(O)cc1)NC(=O)[C@@H](N)CCC(=O)O)C(=O)N[C@@H](CCC(N)=O)C(=O)N[C@H](C(=O)N[C@@H](CCC(N)=O)C(=O)O)[C@@H](C)O [Zfp236.1, E(y/D)LDLQTQ] (H-EYLDLQTQ-OH)",> 70 µM,,
"CSCC[C@H](NC(=O)[C@@H]1CCCN1C(=O)[C@@H](NC(=O)[C@H](Cc1ccc(O)cc1)NC(=O)[C@@H](N)CC(=O)O)C(C)C)C(=O)N[C@@H](CCC(=O)O)C(=O)N[C@@H](CCC(N)=O)C(=O)N1CCC[C@H]1C(=O)O [Alkbh6.1, D(y/D)VPMEQP] (H-DYVPMEQP-OH)",> 70 µM,,"IC50 [1, 4]: 60.9 µM"
CC(C)C[C@H](NC(=O)[C@H](Cc1ccc(O)cc1)NC(=O)[C@@H](N)CC(C)C)C(=O)N[C@@H](CC(=O)O)C(=O)N[C@@H](CO)C(=O)N[C@@H](CCCCN)C(=O)N[C@@H](CO)C(=O)N[C@@H](CC(=O)O)C(=O)N[C@H](C(=O)N[C@H](C(=O)N[C@H](C(=O)O)C(C)C)[C@@H](C)O)[C@@H](C)O [Alms1.1],,,immunogenicity of WT counterpart (functional effector T cells) [2]: elicited functional effector T cells in vivo
"CC[C@H](C)[C@H](NC(=O)[C@@H](NC(=O)[C@H](C)NC(=O)[C@H](Cc1ccc(O)cc1)NC(=O)[C@H](CCC(N)=O)NC(=O)[C@@H](NC(=O)[C@H](CC(C)C)NC(=O)[C@H](Cc1ccc(O)cc1)NC(=O)[C@@H]1CCCN1)[C@@H](C)O)[C@@H](C)CC)C(=O)O [Dhx8.3, P(y/D)LTQYAII] (H-PYLTQYAII-OH)",1.42 µM,+++++ (>100 spots/10^6 CD8 = +++++),"IC50 [1, 4]: 0.244 µM"
"CC(C)C[C@H](N)C(=O)N[C@@H](Cc1ccc(O)cc1)C(=O)N[C@@H](CC(=O)O)C(=O)N[C@H](C(=O)N[C@@H](CC(=O)O)C(=O)N[C@@H](C)C(=O)N[C@@H](C)C(=O)N[C@@H](Cc1ccccc1)C(=O)O)C(C)C [Cpsf2, L(y/D)DVDAAF] (H-LYDVDAAF-OH)",> 70 µM,+++ (21-50 spots/10^6 CD8 = +++),"IC50 [1, 4]: 1.41 µM"
"CSCC[C@H](NC(=O)[C@H](CC(C)C)NC(=O)CNC(=O)[C@@H]1CCCN1C(=O)[C@H](Cc1ccccc1)NC(=O)[C@@H](N)C(C)C)C(=O)N[C@@H](CCC(=O)O)C(=O)N[C@@H](CC(C)C)C(=O)O [Atxn10.2, VFPGLME(l/R)] (H-VFPGLMEL-OH; N-terminus and C-terminus assumed)",,,"CD8 T cell response of immunized mice ([3]; text): did not elicit a detectable response at all; CD8 T cell response of immunized mice ([3]; text, listed as Atxn 10.2): did not elicit a detectable CD8 response; IC50 [1, 5]: 1.11 µM"
CC(C)C[C@H](NC(=O)[C@H](CCC(=O)O)NC(=O)[C@H](Cc1c[nH]c2ccccc12)NC(=O)[C@H](CS)NC(=O)[C@@H](NC(=O)[C@H](CCC(=O)O)NC(=O)[C@H](CS)NC(=O)[C@H](Cc1ccc(O)cc1)NC(=O)[C@H](C)N)[C@@H](C)O)C(=O)O [Apc] (H-AYCETCWEL-OH),,+++++ (>100 spots/106 CD8 = +++++),"IC50 [1, 5]: 0.06 µM"
"CSCC[C@H](NC(=O)[C@H](Cc1ccc(O)cc1)NC(=O)[C@@H](N)CO)C(=O)N[C@@H](CC(C)C)C(=O)N[C@@H](CCC(N)=O)C(=O)N[C@@H](C)C(=O)N[C@@H](CC(C)C)C(=O)N[C@@H](CS)C(=O)O [Tnpo3.4, (sy/LD)MLQALC] (H-SYMLQALC-OH)",0.089 µM,,
CC(C)C[C@H](NC(=O)[C@H](CCCNC(=N)N)NC(=O)[C@@H]1CCCN1C(=O)[C@H](CO)NC(=O)[C@H](CCCNC(=N)N)NC(=O)[C@H](Cc1ccc(O)cc1)NC(=O)[C@H](CCC(N)=O)NC(=O)[C@H](CCCNC(=N)N)NC(=O)[C@H](CCC(N)=O)NC(=O)[C@H](CC(C)C)NC(=O)[C@@H](N)CCCCN)C(=O)O [Mast2] (H-KLQRQYRSPRL-OH),8.51 µM,,
CC(C)C[C@H](NC(=O)CNC(=O)[C@H](CC(C)C)NC(=O)[C@H](CC(C)C)NC(=O)[C@H](CO)NC(=O)[C@H](CCCNC(=N)N)NC(=O)[C@H](CCCNC(=N)N)NC(=O)[C@H](CO)NC(=O)[C@H](CO)NC(=O)[C@H](Cc1c[nH]c2ccccc12)NC(=O)[C@@H](N)CO)C(=O)O [9430016H08Rik] (H-SWSSRRSLLGL-OH),,,"IC50 ([1]; WT counterpart peptide, read-out: Measured IC50 for K^d (Mut/WT): WT, class symbol): > 70 µM"
"CC[C@H](C)[C@H](NC(=O)[C@H](C)NC(=O)[C@H](Cc1ccc(O)cc1)NC(=O)[C@H](CCC(N)=O)NC(=O)[C@@H](NC(=O)[C@H](CC(C)C)NC(=O)[C@H](Cc1ccc(O)cc1)NC(=O)[C@@H]1CCCN1)[C@@H](C)O)C(=O)O [Dhx8.2, P(y/D)LTQYAI] (H-PYLTQYAI-OH; N-terminus and C-terminus assumed)",,+++++ (>100 spots/10^6 CD8 = +++++),
CC[C@H](C)[C@H](NC(=O)[C@H](CS)NC(=O)CNC(=O)[C@H](Cc1c[nH]cn1)NC(=O)[C@H](Cc1ccccc1)NC(=O)CN)C(=O)N[C@@H](Cc1c[nH]cn1)C(=O)N[C@@H](CCC(=O)O)C(=O)N[C@H](C(=O)N[C@@H](CC(C)C)C(=O)O)C(C)C [Slit3] (H-GFHGCIHEVL-OH),,,"IC50 ([1]; mutant neo-epitopes, read-out: measured IC50 / affinity for binding to K^d): ~50 µM"
CC[C@H](C)[C@H](NC(=O)[C@H](CS)NC(=O)[C@H](CC(C)C)NC(=O)[C@H](C)NC(=O)[C@H](CCC(N)=O)NC(=O)[C@H](CC(C)C)NC(=O)[C@H](CCSC)NC(=O)[C@H](Cc1ccc(O)cc1)NC(=O)[C@@H](N)CO)C(=O)N1CCC[C@H]1C(=O)O [Tnpo3.3] (H-SYMLQALCIP-OH),0.111 µM,,
CSCC[C@H](NC(=O)[C@@H]1CCCN1C(=O)[C@@H](NC(=O)[C@H](Cc1ccc(O)cc1)NC(=O)[C@@H](N)CC(=O)O)C(C)C)C(=O)N[C@@H](CCC(=O)O)C(=O)N[C@@H](CCC(N)=O)C(=O)N1CCC[C@H]1C(=O)N[C@@H](CCCNC(=N)N)C(=O)N1CCC[C@H]1C(=O)O [Alkbh6.3] (H-DYVPMEQPRP-OH; N-terminus and C-terminus assumed),,,"IC50 [1, 5]: 23.6 µM"
"CC(C)C[C@H](NC(=O)[C@H](CC(=O)O)NC(=O)[C@H](CC(C)C)NC(=O)[C@H](Cc1ccc(O)cc1)NC(=O)[C@@H](N)CCC(=O)O)C(=O)N[C@@H](CCC(N)=O)C(=O)N[C@H](C(=O)N[C@@H](CCC(N)=O)C(=O)NCC(=O)O)[C@@H](C)O [Zfp236.2, E(y/D)LDLQTQG] (H-EYLDLQTQG-OH)",> 70 µM,,
CC[C@H](C)[C@H](NC(=O)[C@H](C)NC(=O)[C@H](Cc1ccc(O)cc1)NC(=O)[C@H](CCC(N)=O)NC(=O)[C@@H](NC(=O)[C@H](CC(C)C)NC(=O)[C@H](Cc1ccc(O)cc1)NC(=O)[C@@H]1CCCN1)[C@@H](C)O)C(=O)N[C@H](C(=O)N[C@@H](CCSC)C(=O)O)[C@@H](C)CC [Dhx8.4] (H-PYLTQYAIIM-OH),6.26 µM,+++ (21-50 spots/10^6 CD8 = +++),"IC50 [1, 4]: 6.57 µM"
CC(C)C[C@H](NC(=O)[C@H](CCC(=O)O)NC(=O)[C@H](CC(=O)O)NC(=O)[C@H](CCC(=O)O)NC(=O)[C@H](CC(C)C)NC(=O)[C@H](CC(C)C)NC(=O)CNC(=O)[C@H](CCC(N)=O)NC(=O)[C@H](CC(C)C)NC(=O)[C@@H](N)CCC(=O)O)C(=O)O [Ccdc136] (H-ELQGLLEDEL-OH; N-terminus and C-terminus assumed),,,"CD8 T cell response of immunized mice [3]: did not elicit a detectable response at all; also recorded: did not elicit a detectable CD8 response; IC50 [1, 5]: 4.54 µM"
CC[C@H](C)[C@H](NC(=O)[C@H](C)NC(=O)[C@H](Cc1ccc(O)cc1)NC(=O)[C@H](CCC(N)=O)NC(=O)[C@@H](NC(=O)[C@H](CC(C)C)NC(=O)[C@H](Cc1ccc(O)cc1)NC(=O)[C@@H]1CCCN1)[C@@H](C)O)C(=O)N[C@H](C(=O)N[C@@H](CCSC)C(=O)N[C@@H](CC(C)C)C(=O)O)[C@@H](C)CC [Dhx8.1] (H-PYLTQYAIIML-OH),1.65 µM,+++++ (>100 spots/10^6 CD8 = +++++),"IC50 [1, 4]: 2.19 µM"
